From article PMC8026774 (Cellular and molecular neurobiology, 2020)

Tests used:
Assay in all cases: radioligand saturation binding, CHO membranes
MOR-1 (untagged) = MOR-1 (untagged) (Mus musculus, UniProt P42866)
MOR-TR-PK = MOR-TR-PK (Mus musculus, UniProt P42866, DEL387-398)
MOR-1O (untagged) = MOR-1O (untagged) (Mus musculus, UniProt P42866)
MOR-1O-PK = MOR-1O-PK (Mus musculus, UniProt P42866)
MOR-1-PK = MOR-1-PK (Mus musculus, UniProt P42866)

O=C(N[C@@H]1CC[C@@]2(O)[C@H]3Cc4ccc(O)c5c4[C@@]2(CCN3CC2CC2)[C@H]1O5)c1cccc(I)c1 [[^125I]IBNtxA] showed a Kd (MOR-1 (untagged)) of 0.13 ± 0.03 nM, a Kd (MOR-TR-PK) of 0.1 ± 0.02 nM and a Kd (MOR-1O (untagged)) of 0.2 ± 0.07 nM. For the same compound, the Kd (MOR-1O-PK) was 0.24 ± 0.11 nM and the Kd (MOR-1-PK) was 0.1 ± 0.01 nM.
